The source of these data is patent publication US20080114047A1 (priority 2003, published 2008).

One data set relates to DNA. Put plainly: DNA binding ΔTm. As to conditions: Tables VI(a), VI(c).
For another data set, the system named is Plasmodium falciparum. Put plainly: Anti-protozoan data: P. falcip. IC50. Format: cell-based. As to conditions: read-out: P. falcip. IC50.
The test system of a further data set is Aspergillus fumigatus. Put plainly: Anti-fungal data: Aspergillus fumigatus. Format: cell-based. As to conditions: for MIC: strain DUMC 168.95, read-out: Aspergillus. Fumigatus (DUMC 168.95) MIC100.
A further data set concerns J774 macrophages. Put plainly: Toxicity against J774 macrophages (IC50). Format: cell-based. The following applies: Mus musculus, Tables I-III, V.
For a further data set, the system named is Candida albicans. Put plainly: Anti-fungal data: Candida albicans. As to conditions: for MFC / MIC80: strain A39; for MIC: strain A39, read-out: Candida albicans (A39) MIC100. Format: cell-based.
Data set [1] concerns L. donovani axenic amastigotes. Put plainly: In vitro anti-leishmania activity (IC50 vs. L. donovani axenic amastigotes). Format: cell-based. As to conditions: for IC50: Leishmania donovani.
Data set [2] concerns Trypanosoma brucei rhodesiense. The experiment in a line: Anti-protozoan data: T.b.r. IC50. The following applies: read-out: T.b.r. IC50. Format: cell-based.
Another data set has as its system Cryptococcus neoformans. Put plainly: Anti-fungal data: Cryptococcus neoformans. Format: cell-based. The following applies: for MFC / MIC80: strain H99; for MIC: strain H99, read-out: Cryptococcus neoformans (H99) MIC100.
In a further data set the test system is Trypanosoma cruzi. The experiment in a line: Anti-protozoan data: T. cruzi IC50. As to conditions: read-out: T. cruzi IC50. Format: cell-based.
In data set [3] the test system is Mycobacterium tuberculosis. Put plainly: Compounds tested against Mycobacterium tuberculosis (MIC90). Format: cell-based. As to conditions: read-out: M. tb. MIC90.
Setting [4] is: Tables VI(a), VI(c), read-out: Leishmania donovani IC50.
Where [5] appears, read: axenic amastigotes, Tables I-V, read-out: IC50 vs. L. donovani.

The structures appear in SMILES notation. “And” between values parts separate entries of the source, which are not always exact repeats. Equal values may be shown once. Read-outs that look alike come from different tables or passages of the source.

On to `Cl.Cl.N=C(N)c1ccc2oc(CCc3cc4cc(C(=N)N)ccc4o3)cc2c1` [Compound 8, 2-(2-(5-Amidinobenzofuran-2-yl)ethyl)benzofuran-5-carboxamidine dihydrochloride], for which the “DNA binding Δ Tm” value in the data set on DNA amounted to 6.1. The IC50 stood at 2.5 nM in the data set with Plasmodium falciparum (Tables VI(a), VI(c)); 15000 ± 1000 nM in the data set with J774 macrophages; 1060 ± 180 nM in data set [1] (setting [4]); 1060 ± 180 nM in data set [1] (setting [5]); 7.9 nM in data set [2] (Tables VI(a), VI(c)); 21500 nM in the data set “in vitro”. The IC50 with Trypanosoma cruzi (Tables VI(a), VI(c)) worked out at 12300 nM. Besides, the figures for the MIC80 against Aspergillus fumigatus (strain DUMC 168.95), against Candida albicans and against Cryptococcus neoformans were above 100 µg/mL, 100 µg/mL and 100 µg/mL, respectively. Besides, the MIC in the data set with Aspergillus fumigatus was above 100 µg/mL; with Candida albicans it was 100 µg/mL; in the data set on Cryptococcus neoformans it was 100 µg/mL. The MFC in the data set with Candida albicans and with Cryptococcus neoformans was 100 µg/mL throughout. Also, the “selectivity for axenic amastigotes over J774 macrophages (fold more active against the parasites compared to the mammalian host cells)” value in [1] (L. donovani vs. J774 macrophages) turned out to be 14 fold. Besides, the MIC90 in data set [3] was 5.15 µg/mL and 11.6 µM.
In the case of `Cl.Cl.N=C(N)c1ccc(OCCCOc2ccc(-c3cc4cc(C(=N)N)ccc4o3)cc2)cc1` [Compound 44, 2-(4-(3-(4-Carbamimidoylphenoxy)propoxy)phenyl)benzofuran-5-carboxamidine dihydrochloride], the melting point lay within 287 to 289 °C. Moreover, in the data set on DNA, the “DNA binding Δ Tm” value was found to be 18.7. In addition, the IC50 with Plasmodium falciparum was determined as 41.4 nM. The compound further gave an MIC80 against Aspergillus fumigatus (strain DUMC 168.95) of 10 µg/mL. In addition, the MIC in the data set on Aspergillus fumigatus is above 100 µg/mL. Moreover, in the data set with J774 macrophages, the IC50 turned out to be 2700 ± 300 nM. Besides, in the data set on Candida albicans, the MFC was 10 µg/mL, the MIC80 was at most 1 µg/mL and the MIC is at most 1 µg/mL. For the same compound, the IC50 in data set [1] (setting [5]) was found to be 780 ± 210 nM. Besides, in data set [2], the IC50 amounted to 450 nM. This compound yielded an IC50 in the data set “in vitro” of 7320 nM. Further, the IC50 in the data set on Trypanosoma cruzi was found to be 16900 nM. Further, the MIC90 in data set [3] was 0.45 µg/mL and 0.86 µM.
`Cl.Cl.N=C(N)c1ccc(OCCCCCCOc2ccc(-c3cc4cc(C(=N)N)ccc4o3)cc2)cc1` [Compound 53, 2-(4-(6-(4-Carbamimidoylphenoxy)hexyloxy)phenyl)benzofuran-5-carboxamidine dihydrochloride] returned a melting point of 310 to 311 °C. In addition, the IC50 in the data set on Plasmodium falciparum (Tables VI(a), VI(c)) is 263 nM. Further, the MIC80 against Aspergillus fumigatus (strain DUMC 168.95) worked out at 12.5 µg/mL. The MIC in the data set with Aspergillus fumigatus was above 100 µg/mL. Further, the IC50 in the data set on J774 macrophages was 600 ± 70 nM. For the same compound, in the data set with Candida albicans, the MFC came out at 3.12 µg/mL, the MIC80 was found to be 1.56 µg/mL and the MIC is 3.12 µg/mL. Further, in data set [1] (setting [4]), the IC50 turned out to be 650 ± 170 nM. Also, in data set [1] (setting [5]), the IC50 stood at 650 ± 170 nM. Also, the IC50 in data set [2] (Tables VI(a), VI(c)) turned out to be 368 nM. Besides, in the data set with Cryptococcus neoformans, the MFC was determined as 6.25 µg/mL, the MIC80 was found to be 1.56 µg/mL and the MIC was 3.12 µg/mL. Moreover, in “in vitro”, the IC50 amounted to 3290 nM. In the data set with Trypanosoma cruzi (Tables VI(a), VI(c)), the IC50 was 6210 nM. Also, the MIC90 in [3] was 3.74 µg/mL and 6.84 µM.
As to `Cl.Cl.N=C(N)c1ccc(OCCCCCOc2cccc(-c3cc4ccc(C(=N)N)cc4o3)c2)cc1` [Compound 62, 2-(3-(5-(4-Carbamimidoylphenoxy)pentyloxy)phenyl)benzofuran-6-carboxamidine dihydrochloride], the melting point was 178 to 182 °C. Also, in the data set on Plasmodium falciparum (Tables VI(a), VI(c)), the IC50 worked out at 282 nM. In the data set on Aspergillus fumigatus (strain DUMC 168.95), this compound had an MFC above 100 µg/mL and an MIC80 of 1.56 µg/mL. Besides, the MIC with Aspergillus fumigatus turned out to be 3.12 µg/mL. Half-maximal inhibition in the data set on J774 macrophages (IC50) required 5600 ± 300 nM. In addition, in the data set with Candida albicans, the MFC came to 1.56 µg/mL, the MIC80 was 0.39 µg/mL and the MIC amounted to 0.39 µg/mL. Besides, the IC50 in [1] (setting [4]) was 5750 ± 60 nM. Besides, the IC50 in data set [1] (setting [5]) was determined as 5750 ± 60 nM. Moreover, the IC50 in [2] (Tables VI(a), VI(c)) stood at 531 nM. Besides, in the data set on Cryptococcus neoformans, the minimum fungicidal concentration (MFC) is 0.78 µg/mL, the MIC80 came out at 0.39 µg/mL and the MIC was 0.39 µg/mL. This compound had an IC50 in “in vitro” of 4120 nM. Further, the IC50 in the data set with Trypanosoma cruzi (Tables VI(a), VI(c)) was determined as 8560 nM. Further, the MIC90 in data set [3] is 0.65 µg/mL and 1.15 µM.
The compound `CC(C)NC(=N)c1ccc(OCCCCCOc2ccc(-c3cc4ccc(C(=N)NC(C)C)cc4o3)cc2)cc1.Cl.Cl` [Compound 75, 2-(4-(5-(4-(N-Isopropylcarbamimidoyl)phenoxy)pentyloxy)phenyl)-N-isopropylbenzofuran-6-carboxamidine dihydrochloride] returned a melting point of 255 to 257 °C. Further, the IC50 in the data set on Plasmodium falciparum (Tables VI(a), VI(c)) was determined as 74.4 nM. The compound also returned an IC50 in the data set on J774 macrophages of 2700 ± 100 nM. Also, the IC50 in data set [1] (setting [4]) turned out to be 1380 ± 180 nM. The IC50 in data set [1] (setting [5]) came to 1380 ± 180 nM. Moreover, the IC50 in [2] (Tables VI(a), VI(c)) stood at 557 nM. In “in vitro”, this compound had an IC50 of 10700 nM. Further, the IC50 in the data set on Trypanosoma cruzi (Tables VI(a), VI(c)) was 8920 nM. Further, in data set [3], the MIC90 was 1.19 µg/mL and 1.92 µM.
With `CC(C)NC(=N)c1ccc(OCCCCCCOc2ccc(-c3cc4ccc(C(=N)NC(C)C)cc4o3)cc2)cc1.Cl.Cl` [Compound 78, 2-(4-(6-(4-(N-Isopropylcarbamimidoyl)phenoxy)hexyloxy)phenyl)-N-isopropylbenzofuran-6-carboxamidine dihydrochloride], the melting point lay within 264 to 268 °C. Moreover, the IC50 in the data set with Plasmodium falciparum (Tables VI(a), VI(c)) worked out at 51.9 nM. Further, in the data set with J774 macrophages, the IC50 came out at 730 ± 30 nM. Also, in data set [1] (setting [4]), the IC50 worked out at 2620 ± 350 nM. Also, the IC50 in data set [1] (setting [5]) came to 2620 ± 350 nM. For the same compound, the IC50 in data set [2] (Tables VI(a), VI(c)) came to 884 nM. Also, inhibition in “in vitro” was half-maximal at 4900 nM (IC50). Also, the IC50 in the data set on Trypanosoma cruzi (Tables VI(a), VI(c)) came out at 3480 nM. Also, the MIC90 in [3] was 2.11 µg/mL and 3.33 µM.

In general, IC50 refers to the midpoint of a concentration-inhibition curve. In general, MIC80 refers to an inhibitory concentration at the 80% level, which refers to growth in some studies and to a panel of isolates in others. A higher MIC80 goes with weaker potency. A word on the MFC: it is the lowest tested concentration that kills the fungus rather than only halting it. A lower MFC goes with more potent killing. Usually MIC90 stands for the lowest concentration that inhibits either 90% of growth or 90% of the strains tested, depending on the study. As usually defined, the melting point is the temperature, or range, at which the solid turns liquid.
